The record followed here is publication PMC6348381, “Discovery of an MLLT1/3 YEATS Domain Chemical Probe” (Angewandte Chemie (International Ed. in English), 2018).

Common to all, as to type: binding
The target of one experiment is T1, BAZ1A (Homo sapiens, UniProt Q9NRL2).
T1 construct: purchased in-house (SGC bromodomain thermal shift / AlphaScreen panel)
Nature of the experiment: Thermal shift assay, BAZ1A. The procedure: (§1) II.VII Thermal Shift Assay[6]
(§2) Thermal melting experiments were carried out using an Mx3005p Real Time PCR machine (Stratagene). Proteins were buffered in 10 mM HEPES pH 7.5, 500 mM NaCl and assayed in a 96-well plate at a final concentration of 2 μM in 20 μL volume. Compounds were added at a final concentration of 50 μM. SYPRO Orange (Molecular Probes) was added as a fluorescence probe at a dilution of 1:1000. Excitation and emission filters for the SYPRO-Orange dye were set to 465 nm and 590 nm, respectively. The temperature was raised with a step of 3 °C per minute from 25 °C to 96 °C and fluorescence readings were taken at each interval. The unfolding curves were fitted using the Boltzmann equation to determine the middle point of the transition.

The target of the next experiment is T2, BRD4(2) (Homo sapiens, UniProt O60885).
T2 construct: BRD4(2); purchased in-house (SGC bromodomain thermal shift / AlphaScreen panel)
Description: Thermal shift assay, BRD4(2). The protocol: as §1, §2

The target of the next experiment is T3, KIAA1240 (Homo sapiens, UniProt Q9ULI0).
T3 construct: purchased in-house (SGC bromodomain thermal shift / AlphaScreen panel)
T3 sequence (Q9ULI0 1-1458): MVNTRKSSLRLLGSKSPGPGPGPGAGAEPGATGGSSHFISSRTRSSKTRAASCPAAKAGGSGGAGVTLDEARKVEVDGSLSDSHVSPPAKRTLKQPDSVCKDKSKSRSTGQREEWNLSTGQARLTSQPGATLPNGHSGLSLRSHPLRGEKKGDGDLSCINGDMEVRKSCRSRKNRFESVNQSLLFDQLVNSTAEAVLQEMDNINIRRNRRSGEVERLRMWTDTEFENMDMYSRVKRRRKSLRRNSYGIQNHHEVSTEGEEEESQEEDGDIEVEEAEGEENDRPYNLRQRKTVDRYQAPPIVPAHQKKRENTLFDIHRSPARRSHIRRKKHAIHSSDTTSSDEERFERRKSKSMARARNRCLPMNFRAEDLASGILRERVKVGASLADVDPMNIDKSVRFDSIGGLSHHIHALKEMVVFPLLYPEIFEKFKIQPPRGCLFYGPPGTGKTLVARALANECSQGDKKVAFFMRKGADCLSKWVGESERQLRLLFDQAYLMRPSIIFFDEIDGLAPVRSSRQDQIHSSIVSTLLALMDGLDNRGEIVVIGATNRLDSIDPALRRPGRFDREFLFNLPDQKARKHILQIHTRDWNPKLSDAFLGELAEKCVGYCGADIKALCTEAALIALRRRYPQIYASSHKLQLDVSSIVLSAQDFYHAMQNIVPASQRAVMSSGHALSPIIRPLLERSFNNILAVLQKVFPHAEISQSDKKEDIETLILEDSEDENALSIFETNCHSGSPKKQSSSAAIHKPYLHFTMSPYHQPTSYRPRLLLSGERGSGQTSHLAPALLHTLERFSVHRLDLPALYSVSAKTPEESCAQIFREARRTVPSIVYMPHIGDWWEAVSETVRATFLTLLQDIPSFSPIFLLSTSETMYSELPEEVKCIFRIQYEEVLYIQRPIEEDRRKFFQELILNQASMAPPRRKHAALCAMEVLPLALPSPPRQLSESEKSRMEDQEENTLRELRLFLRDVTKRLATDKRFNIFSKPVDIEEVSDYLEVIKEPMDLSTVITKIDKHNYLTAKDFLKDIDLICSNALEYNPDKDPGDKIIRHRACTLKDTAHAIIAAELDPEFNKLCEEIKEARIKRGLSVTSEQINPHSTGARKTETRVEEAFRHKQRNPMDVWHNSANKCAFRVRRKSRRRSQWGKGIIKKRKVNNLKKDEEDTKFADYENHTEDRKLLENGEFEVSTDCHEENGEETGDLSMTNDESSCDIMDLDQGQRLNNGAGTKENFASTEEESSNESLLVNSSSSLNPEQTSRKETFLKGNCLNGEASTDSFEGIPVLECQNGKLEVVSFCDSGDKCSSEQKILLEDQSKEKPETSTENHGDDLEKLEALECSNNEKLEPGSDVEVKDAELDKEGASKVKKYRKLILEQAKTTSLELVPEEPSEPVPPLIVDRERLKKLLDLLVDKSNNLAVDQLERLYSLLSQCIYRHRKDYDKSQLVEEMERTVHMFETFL
Description: Thermal shift assay, KIAA1240. The procedure: as §1, §2

Another experiment addresses T4, SMARCA4 (Homo sapiens, UniProt P51532).
T4 construct: purchased in-house (SGC bromodomain thermal shift / AlphaScreen panel)
Description: Thermal shift assay, SMARCA4.

In another experiment the target is T5, TIF1a (Homo sapiens, UniProt O15164).
T5 construct: Bromosporine with recombinant human bromodomain proteins; made in house
T5 sequence (O15164 899-1004 limits assumed): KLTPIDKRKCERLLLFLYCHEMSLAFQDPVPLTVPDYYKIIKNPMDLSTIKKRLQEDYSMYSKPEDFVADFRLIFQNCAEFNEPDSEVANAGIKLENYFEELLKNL
Nature of the experiment: Thermal shift assay, TIF1a. The protocol: as §1, §2

Another experiment has as its target CECR2 (Homo sapiens, UniProt Q9BXF3). Nature of the experiment: Thermal shift assay, CECR2. Also noted: purchased in-house (SGC bromodomain thermal shift / AlphaScreen panel).
In a further experiment the target is FALZ (Homo sapiens, UniProt Q12830). Nature of the experiment: Thermal shift assay, FALZ. On the set-up: purchased in-house (SGC bromodomain thermal shift / AlphaScreen panel). The protocol: as §1, §2
Another experiment has as its target BRD4(1) (Homo sapiens, UniProt O60885). Nature of the experiment: Thermal shift assay, BRD4(1). On the set-up: BRD4(1); purchased in-house (SGC bromodomain thermal shift / AlphaScreen panel). The procedure:
as §1, §2

Chain of CECR2 (Q9BXF3 whole entry): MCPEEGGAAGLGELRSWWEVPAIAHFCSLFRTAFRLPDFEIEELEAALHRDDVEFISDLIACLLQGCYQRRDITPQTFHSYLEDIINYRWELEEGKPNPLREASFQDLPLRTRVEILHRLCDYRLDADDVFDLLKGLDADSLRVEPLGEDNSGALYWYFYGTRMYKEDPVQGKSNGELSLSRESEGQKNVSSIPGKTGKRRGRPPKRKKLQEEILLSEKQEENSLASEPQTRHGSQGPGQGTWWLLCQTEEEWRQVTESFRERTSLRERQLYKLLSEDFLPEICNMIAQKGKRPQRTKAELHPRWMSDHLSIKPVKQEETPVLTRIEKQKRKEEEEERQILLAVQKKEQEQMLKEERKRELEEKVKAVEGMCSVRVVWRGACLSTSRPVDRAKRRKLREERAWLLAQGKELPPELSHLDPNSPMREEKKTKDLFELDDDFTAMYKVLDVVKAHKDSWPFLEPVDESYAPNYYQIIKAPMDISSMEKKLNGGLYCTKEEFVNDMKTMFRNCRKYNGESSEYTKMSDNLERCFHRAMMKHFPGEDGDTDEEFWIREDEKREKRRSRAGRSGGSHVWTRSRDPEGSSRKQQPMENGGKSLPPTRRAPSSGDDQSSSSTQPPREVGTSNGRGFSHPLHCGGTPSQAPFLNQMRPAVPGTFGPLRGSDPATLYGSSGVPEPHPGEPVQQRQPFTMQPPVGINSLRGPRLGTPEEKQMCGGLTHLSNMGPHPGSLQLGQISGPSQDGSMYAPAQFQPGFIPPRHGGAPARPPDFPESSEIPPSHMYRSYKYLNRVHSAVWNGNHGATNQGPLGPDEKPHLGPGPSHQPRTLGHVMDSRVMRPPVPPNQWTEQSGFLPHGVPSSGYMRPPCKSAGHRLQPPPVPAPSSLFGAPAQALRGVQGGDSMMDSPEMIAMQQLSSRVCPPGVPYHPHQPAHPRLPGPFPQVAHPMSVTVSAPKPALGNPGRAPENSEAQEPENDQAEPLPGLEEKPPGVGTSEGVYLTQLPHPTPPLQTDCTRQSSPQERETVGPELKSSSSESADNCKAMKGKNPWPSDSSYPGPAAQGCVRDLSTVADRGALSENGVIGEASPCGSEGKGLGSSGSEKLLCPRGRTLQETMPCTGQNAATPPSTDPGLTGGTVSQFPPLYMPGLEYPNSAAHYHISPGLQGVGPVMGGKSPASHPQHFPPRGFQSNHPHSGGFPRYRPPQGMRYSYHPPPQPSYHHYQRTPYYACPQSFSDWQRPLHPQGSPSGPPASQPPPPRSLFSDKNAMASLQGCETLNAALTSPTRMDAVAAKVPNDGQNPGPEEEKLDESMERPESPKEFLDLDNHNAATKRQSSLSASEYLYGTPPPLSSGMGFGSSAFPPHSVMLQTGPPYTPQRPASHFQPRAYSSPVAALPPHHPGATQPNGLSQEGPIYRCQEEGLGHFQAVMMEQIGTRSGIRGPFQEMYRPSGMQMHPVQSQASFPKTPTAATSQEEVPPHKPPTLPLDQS
T4 sequence (P51532 whole entry): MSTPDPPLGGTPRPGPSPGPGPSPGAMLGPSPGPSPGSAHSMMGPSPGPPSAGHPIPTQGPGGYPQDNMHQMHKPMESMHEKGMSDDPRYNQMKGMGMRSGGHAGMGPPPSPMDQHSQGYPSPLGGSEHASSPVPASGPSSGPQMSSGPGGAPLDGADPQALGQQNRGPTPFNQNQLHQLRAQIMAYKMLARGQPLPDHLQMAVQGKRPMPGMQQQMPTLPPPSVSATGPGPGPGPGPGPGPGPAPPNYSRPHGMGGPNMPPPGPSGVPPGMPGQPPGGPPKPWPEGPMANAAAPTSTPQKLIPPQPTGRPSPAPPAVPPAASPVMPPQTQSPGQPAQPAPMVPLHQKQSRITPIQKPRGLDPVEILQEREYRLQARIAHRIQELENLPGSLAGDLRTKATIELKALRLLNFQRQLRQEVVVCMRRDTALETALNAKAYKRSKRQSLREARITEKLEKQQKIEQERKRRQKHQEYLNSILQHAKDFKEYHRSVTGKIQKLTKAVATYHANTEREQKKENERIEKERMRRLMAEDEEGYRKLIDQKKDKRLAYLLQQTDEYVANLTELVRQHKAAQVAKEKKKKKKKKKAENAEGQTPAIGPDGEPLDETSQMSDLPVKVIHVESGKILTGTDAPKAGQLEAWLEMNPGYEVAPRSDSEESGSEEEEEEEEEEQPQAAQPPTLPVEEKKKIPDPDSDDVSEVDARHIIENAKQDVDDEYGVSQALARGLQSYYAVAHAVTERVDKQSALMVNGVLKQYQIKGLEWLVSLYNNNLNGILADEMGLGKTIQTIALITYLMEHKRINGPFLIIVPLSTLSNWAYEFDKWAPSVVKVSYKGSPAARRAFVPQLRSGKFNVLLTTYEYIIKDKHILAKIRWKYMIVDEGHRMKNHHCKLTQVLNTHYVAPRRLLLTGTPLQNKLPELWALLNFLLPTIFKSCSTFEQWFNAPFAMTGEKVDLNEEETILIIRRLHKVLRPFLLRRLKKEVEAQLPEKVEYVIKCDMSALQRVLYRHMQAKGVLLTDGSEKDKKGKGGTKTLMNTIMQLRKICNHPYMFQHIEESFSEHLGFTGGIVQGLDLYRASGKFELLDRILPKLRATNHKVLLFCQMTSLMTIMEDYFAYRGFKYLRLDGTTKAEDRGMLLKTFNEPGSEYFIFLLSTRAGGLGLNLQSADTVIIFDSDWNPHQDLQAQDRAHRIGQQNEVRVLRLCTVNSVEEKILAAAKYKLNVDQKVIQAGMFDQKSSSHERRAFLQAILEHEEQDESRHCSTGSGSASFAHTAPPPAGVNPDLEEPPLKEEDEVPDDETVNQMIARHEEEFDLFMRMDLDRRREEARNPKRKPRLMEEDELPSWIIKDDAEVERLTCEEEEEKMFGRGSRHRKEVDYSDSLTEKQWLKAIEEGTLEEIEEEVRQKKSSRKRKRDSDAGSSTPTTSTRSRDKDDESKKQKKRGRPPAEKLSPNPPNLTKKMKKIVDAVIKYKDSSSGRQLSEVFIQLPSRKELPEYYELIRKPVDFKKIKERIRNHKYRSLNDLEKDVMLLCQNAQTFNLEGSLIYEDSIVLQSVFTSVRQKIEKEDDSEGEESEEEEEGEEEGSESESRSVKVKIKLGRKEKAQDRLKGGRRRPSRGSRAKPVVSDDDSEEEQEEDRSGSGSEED
T1 sequence (Q9NRL2 whole entry): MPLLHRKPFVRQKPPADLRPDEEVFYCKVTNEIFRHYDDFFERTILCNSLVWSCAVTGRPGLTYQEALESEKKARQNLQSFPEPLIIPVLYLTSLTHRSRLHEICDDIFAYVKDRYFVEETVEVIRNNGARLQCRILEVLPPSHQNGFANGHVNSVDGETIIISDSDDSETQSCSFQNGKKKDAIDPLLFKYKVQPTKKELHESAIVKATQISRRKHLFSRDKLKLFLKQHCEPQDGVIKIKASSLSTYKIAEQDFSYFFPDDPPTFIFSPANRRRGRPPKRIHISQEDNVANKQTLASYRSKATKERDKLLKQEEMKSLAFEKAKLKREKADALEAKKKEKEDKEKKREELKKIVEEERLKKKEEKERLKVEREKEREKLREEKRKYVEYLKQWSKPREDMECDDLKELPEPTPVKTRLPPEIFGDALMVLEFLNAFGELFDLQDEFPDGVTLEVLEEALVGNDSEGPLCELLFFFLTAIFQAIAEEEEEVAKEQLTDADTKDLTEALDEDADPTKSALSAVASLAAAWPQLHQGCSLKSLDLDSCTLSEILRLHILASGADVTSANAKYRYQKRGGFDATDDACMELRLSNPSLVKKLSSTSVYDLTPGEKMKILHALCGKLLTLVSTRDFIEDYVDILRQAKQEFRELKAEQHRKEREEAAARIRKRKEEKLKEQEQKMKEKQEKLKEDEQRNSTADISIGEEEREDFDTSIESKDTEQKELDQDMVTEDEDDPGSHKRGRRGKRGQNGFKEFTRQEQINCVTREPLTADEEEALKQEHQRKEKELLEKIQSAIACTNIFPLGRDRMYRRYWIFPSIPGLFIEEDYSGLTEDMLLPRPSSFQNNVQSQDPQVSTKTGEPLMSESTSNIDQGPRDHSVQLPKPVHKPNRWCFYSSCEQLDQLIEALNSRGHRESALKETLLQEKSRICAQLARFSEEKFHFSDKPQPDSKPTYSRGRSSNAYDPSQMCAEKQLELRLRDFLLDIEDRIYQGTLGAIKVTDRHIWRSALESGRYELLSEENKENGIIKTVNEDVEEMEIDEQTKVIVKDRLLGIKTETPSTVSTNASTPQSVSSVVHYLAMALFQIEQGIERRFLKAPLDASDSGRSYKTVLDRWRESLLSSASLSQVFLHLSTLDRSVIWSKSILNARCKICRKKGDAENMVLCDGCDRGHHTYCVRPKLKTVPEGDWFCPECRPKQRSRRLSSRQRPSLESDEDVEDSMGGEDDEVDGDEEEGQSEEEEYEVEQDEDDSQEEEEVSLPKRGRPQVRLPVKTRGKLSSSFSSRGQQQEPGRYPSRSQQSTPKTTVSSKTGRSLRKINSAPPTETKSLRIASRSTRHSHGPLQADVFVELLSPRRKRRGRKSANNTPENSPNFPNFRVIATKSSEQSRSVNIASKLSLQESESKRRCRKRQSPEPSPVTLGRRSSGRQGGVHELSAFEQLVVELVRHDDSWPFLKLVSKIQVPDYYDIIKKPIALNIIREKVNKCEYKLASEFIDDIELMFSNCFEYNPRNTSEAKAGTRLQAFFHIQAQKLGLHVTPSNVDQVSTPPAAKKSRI

Turning to `COC(=O)c1ccc(C(=O)Nc2ccc3[nH]c(CN4CCCCC4)nc3c2)cc1` [Compound 1], on BAZ1A (50 μM compound), the “Thermal stabilisation, BAZ1A” value is 1.085. Besides, on BRD4(2) (50 μM compound), the “Thermal stabilisation, BRD4(2)” value was 0.715. The “Thermal stabilisation, KIAA1240” value on KIAA1240 (50 μM compound) turned out to be 0.355. In addition, the “Thermal stabilisation, SMARCA4” value at SMARCA4 (50 μM compound) is 0.135. Moreover, the “Thermal stabilisation, TIF1a” value on TIF1a (50 μM compound) is on record as -1.13. For the same compound, on CECR2 (50 μM compound), the “Thermal stabilisation, CECR2” value is reported as 1.28. The “Thermal stabilisation, FALZ” value on FALZ (50 μM compound) worked out at 0.235. Besides, the “Thermal stabilisation, BRD4(1)” value at BRD4(1) (50 μM compound) is reported as 1.095.

For `C[C@H]1CCCN1Cc1nc2cc(NC(=O)c3ccc4c(cnn4C)c3)ccc2[nH]1` [Compound 92], on BAZ1A (50 μM compound), the “Thermal stabilisation, BAZ1A” value is on record as -0.26. For the same compound, the “Thermal stabilisation, BRD4(2)” value on BRD4(2) (50 μM compound) was 0.1. The “Thermal stabilisation, KIAA1240” value on KIAA1240 (50 μM compound) came out at 0.15. Moreover, the “Thermal stabilisation, SMARCA4” value on SMARCA4 (50 μM compound) is 0.035. For the same compound, on TIF1a (50 μM compound), the “Thermal stabilisation, TIF1a” value is reported as -1.04. The “Thermal stabilisation, CECR2” value at CECR2 (50 μM compound) is on record as 1.205. In addition, at FALZ (50 μM compound), the “Thermal stabilisation, FALZ” value is recorded as -0.315. Besides, the “Thermal stabilisation, BRD4(1)” value on BRD4(1) (50 μM compound) is listed as -0.035.

As to `CCOC(=O)Nc1cc(-c2ccc(C)c(NS(C)(=O)=O)c2)nn2c(C)nnc12` [Bromosporine, reference compound], at BAZ1A (10 µM compound concentration), the “Thermal stabilisation, BAZ1A” value is -0.77. On BRD4(2) (10 µM compound concentration), the “Thermal stabilisation, BRD4(2)” value is 6.575. Also, the “Thermal stabilisation, KIAA1240” value on KIAA1240 (10 µM compound concentration) came out at 0.59. In addition, at SMARCA4 (10 µM compound concentration), the “Thermal stabilisation, SMARCA4” value is reported as 0.12. The “Thermal stabilisation, TIF1a” value at TIF1a (10 µM compound concentration) was determined as 0.16. Further, at CECR2 (10 µM compound concentration), the “Thermal stabilisation, CECR2” value is reported as 11.42. On FALZ (10 µM compound concentration), the “Thermal stabilisation, FALZ” value was 1.5. The “Thermal stabilisation, BRD4(1)” value at BRD4(1) (10 µM compound concentration) stood at 6.61.
